Holding throughout (type): cell-based
One test concerns the target T1, Sppl2a CD74 (Mus musculus, UniProt Q9JJF9).
T1 construct: Mouse whole blood Balb/c mice (sodium citrate) was ordered by Bioreclamation LLC; tissue Bioreclamation LLC
T1 sequence (Q9JJF9 26-523): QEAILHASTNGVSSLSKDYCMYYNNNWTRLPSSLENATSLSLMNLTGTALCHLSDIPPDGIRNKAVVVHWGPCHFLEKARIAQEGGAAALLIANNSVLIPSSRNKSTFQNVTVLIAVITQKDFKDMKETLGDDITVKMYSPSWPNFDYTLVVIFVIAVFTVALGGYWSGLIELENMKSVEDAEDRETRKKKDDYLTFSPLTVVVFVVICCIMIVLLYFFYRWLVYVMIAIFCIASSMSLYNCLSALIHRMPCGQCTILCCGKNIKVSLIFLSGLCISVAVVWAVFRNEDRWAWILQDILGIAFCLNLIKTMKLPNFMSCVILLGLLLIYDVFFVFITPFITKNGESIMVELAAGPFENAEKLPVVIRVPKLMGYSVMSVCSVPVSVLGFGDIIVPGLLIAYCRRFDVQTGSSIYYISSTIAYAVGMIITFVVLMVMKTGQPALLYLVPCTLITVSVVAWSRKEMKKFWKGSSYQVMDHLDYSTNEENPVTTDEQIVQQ
The test can be described thus: CD74/p8 mouse whole blood assay, flow cytometry format. Particulars: Balb/c mouse whole blood, 5 h, CD74 signal on gated live B cells. The method, boiled down:
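Balb/c mouse whole blood (citrate) incubated 5 h at 37 °C with compounds, 11-point dilution from 30 μM top. After RBC lysis, live B220+ B cells stained intracellularly for CD74 (FITC) and analysed by flow cytometry. IC50 fitted from CD74 median fluorescence intensity.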

The target in test [1] is T2, human SPPL2a (Homo sapiens, UniProt Q8TCT8).
T2 sequence (Q8TCT8 26-520): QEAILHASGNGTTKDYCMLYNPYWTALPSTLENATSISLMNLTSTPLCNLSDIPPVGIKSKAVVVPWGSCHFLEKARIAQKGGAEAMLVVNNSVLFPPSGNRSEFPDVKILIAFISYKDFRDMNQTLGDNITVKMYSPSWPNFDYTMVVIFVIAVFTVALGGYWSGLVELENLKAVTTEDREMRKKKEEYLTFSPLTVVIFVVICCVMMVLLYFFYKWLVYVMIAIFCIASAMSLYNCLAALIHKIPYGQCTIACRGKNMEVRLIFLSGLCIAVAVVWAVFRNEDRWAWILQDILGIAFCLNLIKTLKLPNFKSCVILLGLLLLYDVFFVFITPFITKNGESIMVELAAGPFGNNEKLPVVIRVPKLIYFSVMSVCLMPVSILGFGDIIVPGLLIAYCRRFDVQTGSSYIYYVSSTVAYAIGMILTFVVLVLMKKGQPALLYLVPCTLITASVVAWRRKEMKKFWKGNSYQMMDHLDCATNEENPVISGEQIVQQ
The experiment in a line: Sppl2a TL (translocation) imaging assay in U-2 OS cells. Set-up: expressed in transfected cells. The note with it: U-2 OS cells expressing human SPPL2a and EGFP-TNFα(aa1-76) NTF substrate; 24 h. The method, boiled down: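 U-2 OS cells stably expressing human SPPL2a plus doxycycline-induced EGFP-TNFα(aa1-76) NTF, treated 24 h at 37 °C with inhibitor (100 μM–1 nM, 11 points, 0.9% DMSO, 5 μg/mL doxycycline). Imaging of nuclear-minus-cytoplasmic EGFP intensity; % inhibition versus 0.5 μM LY-411,575 and DMSO, IC50 by nonlinear regression; CC50 from cell count.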

For test [2], the target named is T2, human SPPL2a. The experiment in a line: Sppl2a RGA (reporter gene assay) in HEK293 cells. Set-up: expressed in transfected cells; host or cells: HEK293 (transient). The note with it: NT-TNF-VP16-Gal4 substrate, Gal4-luciferase reporter, 24 h. The essentials: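 HEK293 cells transiently co-transfected with human SPPL2a, NT-TNF-VP16-Gal4 substrate and Gal4-luciferase reporter, compound added within 5 h. After 24 h at 37 °C, luciferase luminescence measured; IC50 from concentration versus normalized luminescence.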

Usually IC50 stands for the point on the concentration scale where inhibition reaches its midpoint. A low value points to greater potency in that assay.

Take `CC(C)C(=O)Nc1cc(NC(=O)C[C@@H](C)C(=O)N[C@@H]2C(=O)N3CCCN3Cc3ccccc32)n(C)n1` [Example 62, (R)—N^4-(3-Isobutyramido-1-methyl-1H-pyrazol-5-yl)-2-methyl-N^1—((S)-11-oxo-2,3,10,11-tetrahydro-1H,5H-benzo[d]pyrazolo[1,2-a][1,2]diazepin-10-yl)succinamide]: the values for the concentration for half-maximal inhibition (IC50) against Sppl2a CD74, on human SPPL2a [1] and at human SPPL2a [2] were 317 nM, 0.3 nM and 57 nM, respectively.
With `CC(C)C(=O)Nc1cc(NC(=O)C[C@H](C(=O)N[C@@H]2C(=O)N3CCCN3Cc3ccccc32)C2CCC2)n(C)n1` [Example 63, (S)-2-Cyclobutyl-N^4-(3-isobutyramido-1-methyl-1H-pyrazol-5-yl)-N^1-((S)-11-oxo-2,3,10,11-tetrahydro-1H,5H-benzo[d]pyrazolo [1,2-a][1,2]diazepin-10-yl)succinamide], the IC50 on Sppl2a CD74 amounted to 343 nM; at human SPPL2a [1] it was 0.6 nM; against human SPPL2a [2], 11 nM.
On the same counts, the results for `CC(C)NC(=O)c1nc(Cl)c(NC(=O)C[C@@H](C)C(=O)N[C@@H]2C(=O)N3CCCN3Cc3ccccc32)s1` [Example 64, (R)-N^4-(4-Chloro-2-(isopropylcarba-moyl)thiazol-5-yl)-2-methyl-N^1-((S)-11-oxo-2,3,10,11-tetrahydro-1H,5H-benzo[d]pyrazolo [1,2-a][1,2]diazepin-10-yl)succinamide] are 230 nM, 1 nM and 3 nM.
For `C[C@H](CC(=O)Nc1cc(C(=O)NCC(F)F)nn1C)C(=O)N[C@@H]1C(=O)N2CCCN2Cc2ccccc21` [Example 65, (R)-N^4-(3-((2,2-difluoroethyl)car-bamoyl)-1-methyl-1H-pyrazol-5-yl)-2-methyl-N^1-((S)-11-oxo-2,3,10,11-tetrahydro-1H,5H-benzo[d]pyrazolo [1,2-a][1,2]diazepin-10-yl)succinamide], the IC50 against Sppl2a CD74 is 519 nM; against human SPPL2a [1] it was 1 nM; at human SPPL2a [2], 14 nM.
On the same counts, the results for `Cc1nc(C(=O)NC(C)C)sc1NC(=O)C[C@@H](C)C(=O)N[C@@H]1C(=O)N2CCCN2Cc2ccccc21` [Example 66, (R)-N^4-(2-(Isopropylcarba-moyl)-4-methylthiazol-5-yl)-2-methyl-N^1-((S)-11-oxo-2,3,10,11-tetrahydro-1H,5H-benzo[d]pyrazolo [1,2-a][1,2]diazepin-10-yl)succinamide] are 136 nM, 2 nM and 2 nM.
Consider `C[C@H](CC(=O)Nc1cc(C(=O)NCC(F)(F)F)nn1C)C(=O)N[C@@H]1C(=O)N2CCCN2Cc2ccccc21` [Example 68, (R)-2-methyl-N^4-(1-methyl-3-((2,2,2-trifluoroethyl)car-bamoyl)-1H-pyrazol-5-yl)-N^1-((S)-11-oxo-2,3,10,11-tetrahydro-1H,5H-benzo[d]pyrazolo [1,2-a][1,2]diazepin-10-yl)succinamide], for which the figures for the IC50 against Sppl2a CD74, at human SPPL2a [1] and at human SPPL2a [2] were 329 nM, 3 nM and 34 nM, respectively.
`C[C@H](CC(=O)Nc1cc(NC(=O)c2ccccc2F)nn1C)C(=O)N[C@@H]1C(=O)N2CCCN2Cc2ccccc21` [Example 69, (R)-N^4-(3-(2-Fluorobenzamido)-1-methyl-1H-pyrazol-5-yl)-2-methyl-N^1-((S)-11-oxo-2,3,10,11-tetrahydro-1H,5H-benzo[d]pyrazolo [1,2-a][1,2]diazepin-10-yl)succinamide]: the figures for the IC50 on Sppl2a CD74, on human SPPL2a [1] and against human SPPL2a [2] were 1240 nM, 3 nM and 9 nM, respectively.
On the same counts, the results for `C[C@H](CC(=O)Nc1cc(NC(=O)c2cccc(F)c2F)nn1C)C(=O)N[C@@H]1C(=O)N2CCCN2Cc2ccccc21` [Example 76, (R)-N^4-(3-(2,3-Difluorobenzamido)-1-methyl-1 H-pyrazol-5-yl)-2-methyl-N^1-((S)-11-oxo-2,3,10,11-tetrahydro-1H,5H-benzo[d]pyrazolo [1,2-a][1,2]diazepin-10-yl)succinamide] are 1690 nM, 5 nM and 7 nM.
On the same counts, the results for `CC(C)NC(=O)c1cc(NC(=O)C[C@H](C(=O)N[C@@H]2C(=O)N3CCCN3Cc3c(F)cccc32)C2CC2)n(C)n1` [Example 77, (S)-2-Cyclopropyl-N^1-((S)-6-fluoro-11-oxo-2,3,10,11-tetrahydro-1H,5H-benzo[d]pyrazolo [1,2-a][1,2]diazepin-10-yl)-N^4-(3-(isopropylcarba-moyl)-1-methyl-1H-pyrazol-5-yl)succinamide] are 250 nM, 6 nM and 5 nM.
On the same counts, the results for `Cc1cc(-c2cc(NC(=O)C[C@@H](C)C(=O)N[C@@H]3C(=O)N4CCCN4Cc4ccccc43)n(C)n2)no1` [Example 80, (R)-2-Methyl-N^4-(1-methyl-3-(5-methylisoxazol-3-yl)-1H-pyrazol-5-yl)-N^1-((S)-11-oxo-2,3,10,11-tetrahydro-1H,5H-benzo[d]pyrazolo [1,2-a][1,2]diazepin-10-yl)succinamide] are 910 nM, 7 nM and 8 nM.
Regarding `CC(C)C(=O)Nc1cc(NC(=O)C[C@H](C(=O)N[C@@H]2C(=O)N3CC4(CC4)CN3C(=O)c3ccccc32)C2CCC2)n(C)n1` [Example 82, (S)-2-Cyclobutyl-N^1-((S)-5,11-dioxo-10,11-dihydro-1H,3H,5H-spiro[benzo[d]pyrazolo[1,2-a][1,2]diazepine-2,1′-cyclopropan]-10-yl)-N^4-(3-isobutyramido-1-methyl-1H-pyrazol-5-yl)succinamide], the IC50 against Sppl2a CD74 came out at 1870 nM; on human SPPL2a [1], 9 nM; against human SPPL2a [2], 36 nM.
On to `CCn1nc(-c2ccco2)cc1NC(=O)C[C@@H](C)C(=O)N[C@@H]1C(=O)N2CCCN2Cc2ccccc21` [Example 85, (R)-N^4-(1-Ethyl-3-(furan-2-yl)-1H-pyrazol-5-yl)-2-methyl-N^1-((S)-11-oxo-2,3,10,11-tetrahydro-1H,5H-benzo[d]pyrazolo [1,2-a][1,2]diazepin-10-yl)succinamide], for which the IC50 is 203 nM at Sppl2a CD74, 10 nM on human SPPL2a [1] and 22 nM at human SPPL2a [2].
As for `C[C@H](CC(=O)Nc1cc(NC(=O)C(C)(C)C)nn1C)C(=O)N[C@@H]1C(=O)N2CCCN2Cc2ccccc21` [Example 89, (R)-2-Methyl-N^4-(1-methyl-3-pivalamido-1H-pyrazol-5-yl)-N^1-((S)-11-oxo-2,3,10,11-tetrahydro-1H,5H-benzo[d]pyrazolo [1,2-a][1,2]diazepin-10-yl)succinamide], the IC50 stood at 649 nM at Sppl2a CD74, 11 nM against human SPPL2a [1] and 60 nM against human SPPL2a [2].
As for `Cc1cc(-c2cc(NC(=O)C[C@@H](C)C(=O)N[C@@H]3C(=O)N4CCCN4Cc4ccccc43)n(C)n2)on1` [Example 90, (R)-2-Methyl-N^4. (1-methyl-3-(3-methylisoxazol-5-yl)-1H-pyrazol-5-yl)-N^1-((S)-11-oxo-2,3,10,11-tetrahydro-1H,5H-benzo[d]pyrazolo [1,2-a][1,2]diazepin-10-yl)succinamide], the IC50 on Sppl2a CD74 worked out at 635 nM; at human SPPL2a [1], 11 nM; against human SPPL2a [2], 11 nM.
Regarding `CC(C)NC(=O)c1ncc(NC(=O)C[C@@H](C)C(=O)N[C@@H]2C(=O)N3CCCN3Cc3ccccc32)s1` [Example 91, (R)-N^4-(2-(Isopropylcarba-moyl)thiazol-5-yl)-2-methyl-N^1-((S)-11-oxo-2,3,10,11-tetrahydro-1H,5H-benzo[d]pyrazolo [1,2-a][1,2]diazepin-10-yl)succinamide], the IC50 worked out at 500 nM on Sppl2a CD74, 11 nM against human SPPL2a [1] and 24 nM against human SPPL2a [2].

The record behind these values is patent US20230365571A1, “COMPOUNDS AND COMPOSITIONS AS Sppl2a INHIBITORS” (Novartis AG, priority 2020, published 2023).
